From PubChem BioAssay AID1745844 (Carcinogenic Potency Database (CPDB), 2022)
Activity calls are given as the source filed them. How the calls were made is not given here.

Tested on: rodent lifetime carcinogenesis bioassay, tumor incidence TD50
Test: chronic cancer bioassays in animals – CPDB, compiled studies (AID 1745844)

Q: With CC(=O)Nc1nnc(-c2ccc([N+](=O)[O-])o2)s1 as the compound, how does the TD50 (mouse, strain Swiss, females, in feed, site: any site (literature study), lesion: several types, types named in the paper, dosed 46 weeks, study length 55 weeks) read?
A: 6.9 mg/kg/day

Q: What about the TD50 (mouse, strain Swiss, females, in feed, site: forestomach, lesion: several types, types named in the paper, dosed 46 weeks, study length 55 weeks) of the same compound?
A: 6.74 mg/kg/day

Q: And the TD50 (mouse, strain Swiss, females, in feed, site: forestomach, lesion: squamous-cell carcinoma, dosed 46 weeks, study length 55 weeks)?
A: 104 mg/kg/day

Q: And the TD50 (mouse, strain Swiss, females, in feed, site: forestomach, lesion: squamous-cell papilloma, dosed 46 weeks, study length 55 weeks)?
A: 14.1 mg/kg/day

Q: What about the TD50 (rat, strain Sprague-Dawley, females, in feed, site: all sites, lesion: lymphoblastic lymphoma, dosed 40 weeks, study length 59 weeks) of the same compound?
A: 111 mg/kg/day

Q: What about the TD50 (rat, strain Sprague-Dawley, females, in feed, site: forestomach, lesion: several types, types named in the paper, dosed 40 weeks, study length 59 weeks) of the same compound?
A: 8.84 mg/kg/day

Q: What about the TD50 (rat, strain Sprague-Dawley, females, in feed, site: forestomach, lesion: squamous-cell papilloma, dosed 40 weeks, study length 59 weeks) of the same compound?
A: 11.6 mg/kg/day

Q: What about the TD50 (rat, strain Sprague-Dawley, females, in feed, site: intestine, lesion: hemangioendothelial sarcoma, dosed 40 weeks, study length 59 weeks) of the same compound?
A: 18.6 mg/kg/day

Q: And the TD50 (rat, strain Sprague-Dawley, females, in feed, site: kidney/pelvis, lesion: transitional-cell carcinoma, dosed 40 weeks, study length 59 weeks)?
A: 16.9 mg/kg/day

Q: What about the TD50 (rat, strain Sprague-Dawley, females, in feed, site: liver, lesion: hemangioendothelial sarcoma, dosed 40 weeks, study length 59 weeks) of the same compound?
A: 22.9 mg/kg/day

Q: And the TD50 (rat, strain Sprague-Dawley, females, in feed, site: lung, lesion: alveolar-cell carcinoma, dosed 40 weeks, study length 59 weeks)?
A: 15.3 mg/kg/day

Q: What about the TD50 (rat, strain Sprague-Dawley, females, in feed, site: lung, lesion: hemangioendothelial sarcoma, dosed 40 weeks, study length 59 weeks) of the same compound?
A: 52.3 mg/kg/day

Q: What about the TD50 (rat, strain Sprague-Dawley, females, in feed, site: mammary gland, lesion: adenocarcinoma, dosed 40 weeks, study length 59 weeks) of the same compound?
A: 37.7 mg/kg/day

Q: What about the TD50 (rat, strain Sprague-Dawley, females, in feed, site: mammary gland, lesion: several types, types named in the paper, dosed 40 weeks, study length 59 weeks) of the same compound?
A: 43.3 mg/kg/day

Q: And the TD50 (rat, strain Sprague-Dawley, females, in feed, site: pancreas, lesion: hemangioendothelial sarcoma, dosed 40 weeks, study length 59 weeks)?
A: 81.6 mg/kg/day

Q: What about the TD50 (rat, strain Sprague-Dawley, females, in feed, site: several sites, sites named in the paper, lesion: hemangioendothelial sarcoma, dosed 40 weeks, study length 59 weeks) of the same compound?
A: 10.6 mg/kg/day

Q: And the TD50 (rat, strain Sprague-Dawley, females, in feed, site: small intestine, lesion: adenocarcinoma, dosed 40 weeks, study length 59 weeks)?
A: 111 mg/kg/day

Q: What about the TD50 (rat, strain Sprague-Dawley, females, in feed, site: small intestine, lesion: leiomyosarcoma, dosed 40 weeks, study length 59 weeks) of the same compound?
A: 111 mg/kg/day

Q: For Nc1ccc(-c2ccc(N)c(N)c2)cc1N, which TD50 (mouse, strain CD-1 HaM/ICR, females, in feed, site: any site (literature study), lesion: several types, types named in the paper, dosed 77 weeks, study length 98 weeks) is on record?
A: 599 mg/kg/day (inactive)

Q: What about the TD50 (mouse, strain CD-1 HaM/ICR, females, in feed, site: liver, lesion: several types, types named in the paper, dosed 77 weeks, study length 98 weeks) of the same compound?
A: 1690 mg/kg/day (inactive)

Q: What about the TD50 (mouse, strain CD-1 HaM/ICR, females, in feed, site: lung, lesion: several types, types named in the paper, dosed 77 weeks, study length 98 weeks) of the same compound?
A: 1030 mg/kg/day (inactive)

Q: What about the TD50 (mouse, strain CD-1 HaM/ICR, males, in feed, site: any site (literature study), lesion: several types, types named in the paper, dosed 77 weeks, study length 94 weeks) of the same compound?
A: 224 mg/kg/day

Q: And the TD50 (mouse, strain CD-1 HaM/ICR, males, in feed, site: liver, lesion: several types, types named in the paper, dosed 77 weeks, study length 94 weeks)?
A: 4170 mg/kg/day (inactive)

Q: What about the TD50 (mouse, strain CD-1 HaM/ICR, males, in feed, site: lung, lesion: several types, types named in the paper, dosed 77 weeks, study length 94 weeks) of the same compound?
A: 288 mg/kg/day

Q: And the TD50 (rat, strain Charles River CD (Sprague-Dawley), males, in feed, site: any site (literature study), lesion: several types, types named in the paper, dosed 77 weeks, study length 107 weeks)?
A: 200 mg/kg/day

Q: And the TD50 (rat, strain Charles River CD (Sprague-Dawley), males, in feed, site: liver, lesion: hepatoma, dosed 77 weeks, study length 107 weeks)?
A: 395 mg/kg/day

Q: What about the TD50 (rat, strain Charles River CD (Sprague-Dawley), males, in feed, site: liver, lesion: several types, types named in the paper, dosed 77 weeks, study length 107 weeks) of the same compound?
A: 259 mg/kg/day

Q: Which results are given for NC(N)=S?
A: carcinogen call (rat, strain Fischer 344, males, i.p., site: liver, lesion: one or several types, types not named, dosed 60 weeks, study length 60 weeks): negative (inactive); TD50 (rat, strain Hebrew University, males, in drinking water, site: any site (literature study), lesion: several types, types named in the paper, dosed 113 weeks, study length 113 weeks): 27.5 mg/kg/day; TD50 (rat, strain Hebrew University, males, in drinking water, site: auricular region, lesion: epidermoid carcinoma, dosed 113 weeks, study length 113 weeks): 93.5 mg/kg/day; TD50 (rat, strain Hebrew University, males, in drinking water, site: eyelid, lesion: epidermoid carcinoma, dosed 113 weeks, study length 113 weeks): 93.5 mg/kg/day; TD50 (rat, strain Hebrew University, males, several routes, site: any site (literature study), lesion: several types, types named in the paper, dosed 95 weeks, study length 95 weeks): 50.8 mg/kg/day; TD50 (rat, strain Hebrew University, males, several routes, site: auricular region, lesion: epidermoid carcinoma, dosed 95 weeks, study length 95 weeks): 104 mg/kg/day; TD50 (rat, strain Hebrew University, males, several routes, site: eyelid, lesion: epidermoid carcinoma, dosed 95 weeks, study length 95 weeks): 225 mg/kg/day; TD50 (rat, strain Osborne-Mendel, females, in feed, site: any site (literature study), lesion: benign tumor, dosed 104 weeks, study length 104 weeks): 15 mg/kg/day (inactive); carcinogen call (rat, strain Osborne-Mendel, females, in feed, site: any site (literature study), lesion: malignant tumor, dosed 104 weeks, study length 104 weeks): negative (inactive); TD50 (rat, strain Osborne-Mendel, females, in feed, site: any site (literature study), lesion: several types, types named in the paper, dosed 113 weeks, study length 113 weeks): 16.2 mg/kg/day (inactive); carcinogen call (rat, strain Osborne-Mendel, females, in feed, site: liver, lesion: one or several types, types not named, dosed 104 weeks, study length 104 weeks): negative (inactive); carcinogen call (rat, strain Osborne-Mendel, females, in feed, site: liver, lesion: one or several types, types not named, dosed 113 weeks, study length 113 weeks): negative (inactive); TD50 (rat, strain Osborne-Mendel, males, in feed, site: any site (literature study), lesion: benign tumor, dosed 104 weeks, study length 104 weeks): 64.7 mg/kg/day (inactive); carcinogen call (rat, strain Osborne-Mendel, males, in feed, site: any site (literature study), lesion: malignant tumor, dosed 104 weeks, study length 104 weeks): negative (inactive); TD50 (rat, strain Osborne-Mendel, males, in feed, site: any site (literature study), lesion: several types, types named in the paper, dosed 113 weeks, study length 113 weeks): 46.1 mg/kg/day (inactive); carcinogen call (rat, strain Osborne-Mendel, males, in feed, site: liver, lesion: one or several types, types not named, dosed 104 weeks, study length 104 weeks): negative (inactive); carcinogen call (rat, strain Osborne-Mendel, males, in feed, site: liver, lesion: one or several types, types not named, dosed 113 weeks, study length 113 weeks): negative (inactive)

Q: O=C1C2CC=CCC2C(=O)N1SC(Cl)(Cl)Cl (stereo unspecified) was tested. Which carcinogen call (mouse, strain B6AKF1, females, oral dosing, site: any site (literature study), lesion: several types, types named in the paper, dosed 76 weeks, study length 76 weeks) did it give?
A: negative (inactive)

Q: And the carcinogen call (mouse, strain B6AKF1, females, oral dosing, site: liver, lesion: hepatoma, dosed 76 weeks, study length 76 weeks)?
A: negative (inactive)

Q: And the carcinogen call (mouse, strain B6AKF1, females, oral dosing, site: lung, lesion: adenoma, dosed 76 weeks, study length 76 weeks)?
A: negative (inactive)

Q: What about the TD50 (mouse, strain B6AKF1, males, oral dosing, site: any site (literature study), lesion: several types, types named in the paper, dosed 76 weeks, study length 76 weeks) of the same compound?
A: 161 mg/kg/day (inactive)

Q: And the TD50 (mouse, strain B6AKF1, males, oral dosing, site: liver, lesion: hepatoma, dosed 76 weeks, study length 76 weeks)?
A: 195 mg/kg/day (inactive)

Q: And the TD50 (mouse, strain B6AKF1, males, oral dosing, site: lung, lesion: adenoma, dosed 76 weeks, study length 76 weeks)?
A: 3620 mg/kg/day (inactive)

Q: What about the carcinogen call (mouse, strain B6C3F1, females, in feed, site: any site (literature study), lesion: several types, types named in the paper, dosed 80 weeks, study length 91 weeks) of the same compound?
A: negative (inactive)

Q: And the TD50 (mouse, strain B6C3F1, females, in feed, site: duodenum, lesion: adenocarcinoma in adenomatous polyp, dosed 80 weeks, study length 90 weeks)?
A: 21600 mg/kg/day

Q: What about the TD50 (mouse, strain B6C3F1, females, oral dosing, site: any site (literature study), lesion: several types, types named in the paper, dosed 76 weeks, study length 76 weeks) of the same compound?
A: 244 mg/kg/day (inactive)

Q: What about the carcinogen call (mouse, strain B6C3F1, females, oral dosing, site: liver, lesion: hepatoma, dosed 76 weeks, study length 76 weeks) of the same compound?
A: negative (inactive)

Q: What about the carcinogen call (mouse, strain B6C3F1, females, oral dosing, site: lung, lesion: several types, types named in the paper, dosed 76 weeks, study length 76 weeks) of the same compound?
A: negative (inactive)

Q: And the carcinogen call (mouse, strain B6C3F1, males, in feed, site: any site (literature study), lesion: several types, types named in the paper, dosed 80 weeks, study length 91 weeks)?
A: negative (inactive)

Q: And the TD50 (mouse, strain B6C3F1, males, in feed, site: duodenum, lesion: adenocarcinoma in adenomatous polyp, dosed 80 weeks, study length 90 weeks)?
A: 15100 mg/kg/day

Q: And the TD50 (mouse, strain B6C3F1, males, in feed, site: duodenum, lesion: adenomatous polyp, NOS or adenocarcinoma in adenomatous polyp, dosed 80 weeks, study length 90 weeks)?
A: 7390 mg/kg/day

Q: What about the TD50 (mouse, strain B6C3F1, males, oral dosing, site: any site (literature study), lesion: several types, types named in the paper, dosed 76 weeks, study length 76 weeks) of the same compound?
A: 42.5 mg/kg/day (inactive)

Q: And the TD50 (mouse, strain B6C3F1, males, oral dosing, site: liver, lesion: hepatoma, dosed 76 weeks, study length 76 weeks)?
A: 86.1 mg/kg/day (inactive)

Q: And the TD50 (mouse, strain B6C3F1, males, oral dosing, site: lung, lesion: adenoma, dosed 76 weeks, study length 76 weeks)?
A: 187 mg/kg/day (inactive)

Q: What about the TD50 (mouse, strain Charles River CD1, females, in feed, site: small intestine, lesion: adenoma, dosed 113 weeks, study length 113 weeks) of the same compound?
A: 13300 mg/kg/day

Q: What about the TD50 (mouse, strain Charles River CD1, females, in feed, site: small intestine, lesion: carcinoma, dosed 113 weeks, study length 113 weeks) of the same compound?
A: 2110 mg/kg/day

Q: What about the TD50 (mouse, strain Charles River CD1, females, in feed, site: small intestine, lesion: several types, types named in the paper, dosed 113 weeks, study length 113 weeks) of the same compound?
A: 1740 mg/kg/day

Q: What about the TD50 (mouse, strain Charles River CD1, males, in feed, site: small intestine, lesion: adenoma, dosed 113 weeks, study length 113 weeks) of the same compound?
A: 8280 mg/kg/day

Q: What about the TD50 (mouse, strain Charles River CD1, males, in feed, site: small intestine, lesion: carcinoma, dosed 113 weeks, study length 113 weeks) of the same compound?
A: 3500 mg/kg/day

Q: And the TD50 (mouse, strain Charles River CD1, males, in feed, site: small intestine, lesion: several types, types named in the paper, dosed 113 weeks, study length 113 weeks)?
A: 2690 mg/kg/day

Q: What about the TD50 (rat, strain Charles River CD (Sprague-Dawley), females, in feed, site: kidney, lesion: several types, types named in the paper, dosed 104 weeks, study length 104 weeks) of the same compound?
A: 17900 mg/kg/day

Q: What about the TD50 (rat, strain Charles River CD (Sprague-Dawley), females, in feed, site: kidney, lesion: tubule carcinoma, dosed 104 weeks, study length 104 weeks) of the same compound?
A: 17900 mg/kg/day

Q: And the TD50 (rat, strain Charles River CD (Sprague-Dawley), males, in feed, site: kidney, lesion: several types, types named in the paper, dosed 104 weeks, study length 104 weeks)?
A: 2690 mg/kg/day

Q: And the TD50 (rat, strain Charles River CD (Sprague-Dawley), males, in feed, site: kidney, lesion: tubule adenoma, dosed 104 weeks, study length 104 weeks)?
A: 3810 mg/kg/day

Q: What about the TD50 (rat, strain Charles River CD (Sprague-Dawley), males, in feed, site: kidney, lesion: tubule carcinoma, dosed 104 weeks, study length 104 weeks) of the same compound?
A: 11500 mg/kg/day

Q: What about the TD50 (rat, strain Osborne-Mendel, females, in feed, site: adrenal gland, lesion: cortical adenoma + cortical carcinoma, dosed 80 weeks, study length 109 weeks) of the same compound?
A: 253 mg/kg/day (inactive)

Q: What about the carcinogen call (rat, strain Osborne-Mendel, females, in feed, site: any site (literature study), lesion: several types, types named in the paper, dosed 80 weeks, study length 113 weeks) of the same compound?
A: negative (inactive)

Q: What about the TD50 (rat, strain Osborne-Mendel, males, in feed, site: any site (literature study), lesion: several types, types named in the paper, dosed 80 weeks, study length 113 weeks) of the same compound?
A: 4780 mg/kg/day (inactive)

Q: What about the TD50 (rat, strain Wistar, females, in feed, site: uterus, lesion: sarcoma, dosed 130 weeks, study length 130 weeks) of the same compound?
A: 1700 mg/kg/day
